What is called IC50 is the concentration that gives 50% inhibition. Read a high IC50 as lower potency.

Sequence of human MGL from HeLa cells (Q99685 whole entry): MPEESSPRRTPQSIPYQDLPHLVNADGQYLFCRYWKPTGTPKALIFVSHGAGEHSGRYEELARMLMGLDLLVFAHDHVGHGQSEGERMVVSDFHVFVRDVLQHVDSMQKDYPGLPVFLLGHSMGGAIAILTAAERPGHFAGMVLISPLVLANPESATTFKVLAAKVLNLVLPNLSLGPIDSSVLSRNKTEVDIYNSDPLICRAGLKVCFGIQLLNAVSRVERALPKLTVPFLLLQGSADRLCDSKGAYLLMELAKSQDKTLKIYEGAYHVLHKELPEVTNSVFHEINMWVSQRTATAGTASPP

In the experiment the target is human MGL from HeLa cells (Homo sapiens (Human), UniProt Q99685). The experiment can be described thus: MGL in vitro activity assay ([glycerol-1,3-3H]-oleoyl glycerol hydrolysis, activated carbon filtration). Conditions: 300 nM [Glycerol-1,3-3H]-oleoyl glycerol, one hour. It is filed as biochemical. An outline of the steps:
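Endogenous human MGL in HeLa cells/homogenates incubated 1 h with test compounds and 300 nM [glycerol-1,3-3H]-oleoyl glycerol. Released 3H-glycerol passing an activated carbon filter counted as activity; screening at 10 μM compound, top IC50 concentration set empirically.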
Turning to `COc1cc(C2CCC3(CC2)CN(C(=O)[C@H]2C[C@@](C)(O)C2)C3)ccc1C` [Example 129, ((1s,3s)-3-Hydroxy-3-methylcyclobutyl)(7-(3-methoxy-4-methylphenyl)-2-azaspiro[3.5]nonan-2-yl)methanone], half-maximal inhibition (IC50) required 25 nM. In other words, the double-digit nanomolar range.
Next, `Cc1cnc(OC2CCC3(CC2)CN(C(=O)[C@H]2C[C@@](C)(O)C2)C3)c(Cl)c1` [Example 436, (7-((3-Chloro-5-methylpyridin-2-yl)oxy)-2-azaspiro[3.5]nonan-2-yl)((1s,3s)-3-hydroxy-3-methylcyclobutyl)methanone]: 13 nM; `CN(C)c1cc(C2CCC3(CC2)CN(C(=O)[C@H]2C[C@@](C)(O)C2)C3)ccc1C(F)(F)F` [Example 115, (7-(3-(Dimethylamino)-4-(trifluoromethyl)phenyl)-2-azaspiro[3.5]nonan-2-yl)((1s,3s)-3-hydroxy-3-methylcyclobutyl)methanone]: 17 nM.
In turn, `Cc1cc(OC(F)(F)F)cc(C2CCC3(C2)CN(C(=O)[C@H]2C[C@@](C)(O)C2)C3)c1` (mixture of isomers) [Example 93, (rac)-((1s,3s)-3-Hydroxy-3-methylcyclobutyl)(6-(3-methyl-5-(trifluoromethoxy)phenyl)-2-azaspiro[3.4]octan-2-yl)methanone] came in with a 50% inhibitory concentration (IC50) of 20 nM.
`Cc1ccc(C2CCC3(C2)CN(C(=O)[C@H]2C[C@@](C)(O)C2)C3)cc1OC(F)F` (mixture of isomers) [Example 82, (rac)-(6-(3-(Difluoromethoxy)-4-methylphenyl)-2-azaspiro[3.4]octan-2-yl)((1s,3s)-3-hydroxy-3-methylcyclobutyl)methanone] came in with an IC50 of 31 nM.
Turning to `C[C@]1(O)C[C@@H](C(=O)N2CC3(CCC(Oc4ccc(C5CC5)cn4)CC3)C2)C1` [Example 426, (7-((5-Cyclopropylpyridin-2-yl)oxy)-2-azaspiro[3.5]nonan-2-yl)((1s,3s)-3-hydroxy-3-methylcyclobutyl)methanone], half-maximal inhibition (IC50) required 20 nM.
In the case of `Cc1ccc(OC2CC3(CCN(C(=O)[C@H]4C[C@@](C)(O)C4)CC3)C2)cc1` [Example 245, ((1s,3s)-3-Hydroxy-3-methylcyclobutyl)(2-(p-tolyloxy)-7-azaspiro[3.5]nonan-7-yl)methanone] it was 329 nM; in that of `CCc1nc(OC2CCC3(CC2)CN(C(=O)[C@H]2C[C@@](C)(O)C2)C3)ccc1C(F)F` [Example 440, (7-((5-(Difluoromethyl)-6-ethylpyridin-2-yl)oxy)-2-azaspiro[3.5]nonan-2-yl)((1s,3s)-3-hydroxy-3-methylcyclobutyl)methanone], 15 nM; in that of `C[C@]1(O)C[C@@H](C(=O)N2CC3(CC(Cc4ccc5cnn(CC(F)(F)F)c5c4)C3)C2)C1` [Example 307, ((1s,3s)-3-Hydroxy-3-methylcyclobutyl)(6-((1-(2,2,2-trifluoroethyl)-1H-indazol-6-yl)methyl)-2-azaspiro[3.3]heptan-2-yl)methanone], 431 nM.
In the case of `COc1cc(CC2CC3(C2)CN(C(=O)[C@H]2C[C@@](C)(O)C2)C3)ccc1C(F)(F)F` [Example 276, ((1s,3s)-3-Hydroxy-3-methylcyclobutyl)(6-(3-methoxy-4-(trifluoromethyl)benzyl)-2-azaspiro[3.3]heptan-2-yl)methanone] it was 1 nM.
With `Cc1ccccc1C1CCC2(CC1)CN(C(=O)[C@H]1C[C@@](C)(O)C1)C2` [Example 138, ((1s,3s)-3-Hydroxy-3-methylcyclobutyl)(7-(o-tolyl)-2-azaspiro[3.5]nonan-2-yl)methanone], the IC50 is 47 nM.
In turn, `CC(C)(C)c1ccc(OC2CCC3(CC2)CN(C(=O)[C@H]2C[C@@](C)(O)C2)C3)cc1` [Example 260, (7-(4-(tert-Butyl)phenoxy)-2-azaspiro[3.5]nonan-2-yl)((1s,3s)-3-hydroxy-3-methylcyclobutyl)methanone] gave a concentration for half-maximal inhibition (IC50) of 10 nM.
`CC(C)(C)c1cccc(OC2CCC3(CC2)CN(C(=O)[C@H]2C[C@@](C)(O)C2)C3)n1` [Example 425, (7-((6-(tert-Butyl)pyridin-2-yl)oxy)-2-azaspiro[3.5]nonan-2-yl)((1s,3s)-3-hydroxy-3-methylcyclobutyl)methanone] showed a half-maximal inhibitory concentration (IC50) of 7.8 nM.
The molecule `CCOc1cccc(C2CCC3(CC2)CN(C(=O)[C@H]2C[C@@](C)(O)C2)C3)c1` [Example 132, (7-(3-Ethoxyphenyl)-2-azaspiro[3.5]nonan-2-yl)((1s,3s)-3-hydroxy-3-methylcyclobutyl)methanone] showed an IC50 of 41 nM.
Molecule `Cc1ccc(OC2CCC3(CC2)CN(C(=O)[C@H]2C[C@@](C)(O)C2)C3)cc1C` [Example 405, (7-(3,4-Dimethylphenoxy)-2-azaspiro[3.5]nonan-2-yl)((1s,3s)-3-hydroxy-3-methylcyclobutyl)methanone] showed a 50% inhibitory concentration (IC50) of 32 nM. The IC50 values of the last two molecules are within 1.5-fold of each other.
In turn, `C[C@]1(O)C[C@@H](C(=O)N2CC3(CCC(c4ccn5ccnc5c4)C3)C2)C1` (mixture of isomers) [Example 328, (rac)-((1s,3s)-3-Hydroxy-3-methylcyclobutyl)(6-(imidazo[1,2-a]pyridin-7-yl)-2-azaspiro[3.4]octan-2-yl)methanone] showed an IC50 of 3710 nM. This IC50 lies about 120-fold higher than the previous one.
Next, `CC(C)(C)c1cccc(C2CC3(CCN(C(=O)[C@H]4C[C@@](C)(O)C4)C3)C2)c1` (some centres unmarked) [Example 89, (2-(3-(tert-Butyl)phenyl)-6-azaspiro[3.4]octan-6-yl)((1s,3s)-3-hydroxy-3-methylcyclobutyl)methanone]: 126 nM; `COc1cc(OC2CCC3(CC2)CN(C(=O)[C@H]2C[C@@](C)(O)C2)C3)ccc1C` [Example 408, ((1s,3s)-3-Hydroxy-3-methylcyclobutyl)(7-(3-methoxy-4-methylphenoxy)-2-azaspiro[3.5]nonan-2-yl)methanone]: 33 nM; `C[C@]1(O)C[C@@H](C(=O)N2CC3(CC(Cc4ccc5ccnn5c4)C3)C2)C1` [Example 284, ((1s,3s)-3-Hydroxy-3-methylcyclobutyl)(6-(pyrazolo[1,5-c]pyridin-6-ylmethyl)-2-azaspiro[3.3]heptan-2-yl)methanone]: 122 nM.
For the molecule `Cc1ccc(C)c(OC2CCC3(CC2)CN(C(=O)[C@H]2C[C@@](C)(O)C2)C3)n1` [Example 429, (7-((3,6-Dimethylpyridin-2-yl)oxy)-2-azaspiro[3.5]nonan-2-yl)((1s,3 s)-3-hydroxy-3-methylcyclobutyl)methanone], the IC50 stood at 19 nM.
Regarding `CC(C)c1cccc(OC2CC3(C2)CN(C(=O)[C@H]2C[C@@](C)(O)C2)C3)c1C(F)(F)F` [Example 251, ((1s,3s)-3-Hydroxy-3-methylcyclobutyl)(6-(3-isopropyl-2-(trifluoromethyl)phenoxy)-2-azaspiro[3.3]heptan-2-yl)methanone], the IC50 came to 7.4 nM.
For the molecule `CC(C)c1cccc(C2CCC3(CC2)CN(C(=O)[C@H]2C[C@@](C)(O)C2)C3)c1` [Example 133, ((1s,3s)-3-Hydroxy-3-methylcyclobutyl)(7-(3-isopropylphenyl)-2-azaspiro[3.5]nonan-2-yl)methanone], the IC50 worked out at 8.2 nM.
Molecule `COc1cc(F)c(F)c(C2CCC3(CC2)CN(C(=O)[C@H]2C[C@@](C)(O)C2)C3)c1` [Example 368, (7-(2,3-Difluoro-5-methoxyphenyl)-2-azaspiro[3.5]nonan-2-yl)((1s,3s)-3-hydroxy-3-methylcyclobutyl)methanone] yielded an IC50 of 59 nM.
In the case of `COC1(c2cc(C)cc(C)c2)CCC2(CC1)CN(C(=O)[C@H]1C[C@@](C)(O)C1)C2` [Example 344, (7-(3,5-Dimethylphenyl)-7-methoxy-2-azaspiro[3.5]nonan-2-yl)((1s,3s)-3-hydroxy-3-methylcyclobutyl)methanone], the half-inhibitory concentration (IC50) was 0.84 nM.
`C[C@]1(O)C[C@@H](C(=O)N2CC3(CCC(Oc4cc(C(F)(F)F)ccn4)CC3)C2)C1` [Example 418, ((1s,3s)-3-Hydroxy-3-methylcyclobutyl)(7-((4-(trifluoromethyl)pyridin-2-yl)oxy)-2-azaspiro[3.5]nonan-2-yl)methanone] returned an IC50 of 180 nM.
In the case of `C[C@]1(O)C[C@@H](C(=O)N2CC3(CCC(c4cccc5ccnn45)CC3)C2)C1` [Example 389, ((1s,3s)-3-Hydroxy-3-methylcyclobutyl)(7-(pyrazolo[1,5-a]pyridin-7-yl)-2-azaspiro[3.5]nonan-2-yl)methanone] it was 101 nM; in that of `Cc1nc(OC2CCC3(CC2)CN(C(=O)[C@H]2C[C@@](C)(O)C2)C3)ccc1Cl` [Example 434, (7-((5-Chloro-6-methylpyridin-2-yl)oxy)-2-azaspiro[3.5]nonan-2-yl)((1s,3s)-3-hydroxy-3-methylcyclobutyl)methanone], 25 nM; in that of `COc1cc(Cl)cc(C2CCC3(C2)CN(C(=O)[C@H]2C[C@@](C)(O)C2)C3)c1` (mixture of isomers) [Example 86, (rac)-(6-(3-Chloro-5-methoxyphenyl)-2-azaspiro[3.4]octan-2-yl)((1s,3s)-3-hydroxy-3-methylcyclobutyl)methanone], 42 nM.
In the case of `Cc1cc2cnn(C)c2cc1CC1CC2(C1)CN(C(=O)[C@H]1C[C@@](C)(O)C1)C2` [Example 301, (6-((1,5-Dimethyl-1H-indazol-6-yl)methyl)-2-azaspiro[3.3]heptan-2-yl)((1s,3s)-3-hydroxy-3-methylcyclobutyl)methanone] it was 36 nM; in that of `CC(C)(C)c1cccc(OC2CC3(C2)CN(C(=O)[C@H]2C[C@@](C)(O)C2)C3)c1` [Example 244, (6-(3-(tert-Butyl)phenoxy)-2-azaspiro[3.3]heptan-2-yl)((1s,3s)-3-hydroxy-3-methylcyclobutyl)methanone], 63 nM.
In the case of `C[C@]1(O)C[C@@H](C(=O)N2CC3(CC[C@@H](c4ccc(C(F)(F)F)cc4)C3)C2)C1` (stereo in doubt) [Example 56, ((1s,3*S)-3-Hydroxy-3-methylcyclobutyl)((*R)-6-(4-(trifluoromethyl)phenyl)-2-azaspiro[3.4]octan-2-yl)methanone] it was 22 nM; in that of `Cc1c(OC2CC2)cccc1C1CCC2(CC1)CN(C(=O)[C@H]1C[C@@](C)(O)C1)C2` [Example 364, (7-(3-Cyclopropoxy-2-methylphenyl)-2-azaspiro[3.5]nonan-2-yl)((1s,3s)-3-hydroxy-3-methylcyclobutyl)methanone], 2.9 nM.
